# Laboratory results as given in article PMC7321108, “1-Hydroxyanthraquinones Containing Aryl Substituents as Potent and Selective Anticancer Agents” (Molecules, 2020).
# Tests used:
# [1] = MTT cytotoxicity assay, normal hTERT-immortalized lung fibroblasts; assay type: cell-based; conditions: human, hTERT-immortalized lung fibroblasts (normal cell line), 72 h incubation, mean ± SEM of three experiments, read-out: Cytotoxicity (GI50) against hTERT Lung Fibroblasts
# Method in brief: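 Viability is measured by MTT reduction after 72 h of continuous compound treatment in RPMI-1640 containing 10% embryonic calf serum. GI50 reflects the concentration causing 50% cell death compared with compound-free wells.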
# pUC19 DNA plasmid = test: Gel retardation (electrophoretic mobility shift) assay; assay type: binding; conditions: 0.5 µg pUC19 plasmid, 0.025 µM test compound, room temperature 1 h, agarose gel 60 V 4 h
# Description: The interaction of compounds 13, 15, 16, 23, 25 27, 28, 35, 40 and 44 with DNA was experimentally confirmed by study of the electrophoretic mobility. For this the gel retardation assay was performed. Doxorubicin in different concentration was used as a positive control. In order to avoid destruction of the possible complex of DNA with compounds, the electrophoresis was performed at low voltage. The results are presented at Figure 3.
# To study the interaction between test compounds and DNA the electrophoretic mobility shift assay was performed. 0.5 µg of pUC19 plasmid was incubated with 0.025 µM of test compounds at room temperature for 1 h. After that the electrophoresis was performed in agarose gel (1/2%) in TBE buffer (60 V, 4 h). For visualization the gel was staining with ethidium bromide and analyzed with Bio-Rad gel documentation system.
# DU-145 cells = test: Cell cycle analysis by flow cytometry (Hoechst 33342), DU-145; assay type: cell-based, human; conditions: DU-145, treated at GI50 concentration, 24 h
# Description: We have carried out flow cytometric study of compounds 13, 16 and the isomeric compound 25 (Table 4, Figure 4G,H). Concentrations of 16 and 25 were taken as 5.4 and 14.5 μM, respectively, as per cytotoxic studies (Table 1). After examining the data for 13 (Figure 4G, Table 4), a good number of cells are arrested in Sub-G1, G0/G1 and S phase. Biosynthetic activity is very high during Sub-G1 phase; this is probably achieved by enhancing of apoptosis. The isomeric molecule 25 arrest G0/G1 and S phases, i.e., affecting the DNA synthesis/replication mechanism. Similarly, for 25 a different pattern is observed, i.e., variations at S and G2/M phases were observed, in comparison to the control. […] Some difference in the mechanism of operation of 13 and 25 has been observed during the progression of cell cycle like: Sub-G1 phase was highly disturbed by 13 and S and G0/G1 phases were highly disturbed by 25.
# For cell cycle analysis cells were seeded in 6-well plates (30,000 per plate) and incubate for adhesion for 24 h. […] Cells were washed with PBS twice, harvested, pelleted and resuspended in 0.5 mL of PBS. For staining the Hoechst 33342 Ready Flow Reagent (Invitrogen) was used according to the instruction. CytoFLEX flow cytometer (Beckman Coulter) was used for analysis. The results are presented as a percentage of cell population standing in different stages of the cell cycle.
SMILES,GI50 at 72 h [1],Retardation of plasmid DNA (electrophoretic mobility) (pUC19 DNA plasmid),Population (% Cell Distribution) G0/G1 (DU-145 cells),Population (% Cell Distribution) G2/M (DU-145 cells),Population (% Cell Distribution) S (DU-145 cells),Population (% Cell Distribution) Sub-G1 (DU-145 cells),Population (% Cell Distribution) Super-G2 (DU-145 cells)
"O=C1c2ccccc2C(=O)c2c(-c3ccccc3)ccc(O)c21 [Compound 13, 1-Hydroxy-4-phenylanthracene-9,10-dione]",67.1 ± 8.06 µM,cause a retardation of plasmid DNA,28.7%,6.3%,28.7%,34.6%,1.6%
"COc1cccc(-c2ccc(O)c3c2C(=O)c2ccccc2C3=O)c1OC [Compound 16, 1-(2,3-Dimethoxyphenyl)-4-hydroxyanthracene-9,10-dione]",48 ± 3.87 µM,cause a retardation of plasmid DNA,44.3%,7.3%,30.7%,15.7%,2.0%
